Reference: US4022889A, “Therapeutic compositions of antibiotic U-44,590 and methods for using the same” (The Upjohn Company, priority 1975, dated 1977)
Converted amounts (≈) assume the structure as drawn. Read-outs that look alike come from different tables or passages of the source.

Key:
Herpes virus = assay: Activity against DNA viruses (statement); conditions: for example, the Herpes virus
Herpes simplex virus = assay: Antiviral activity in mice inoculated intravenously with Herpes simplex virus; assay type: in vivo; conditions: 400, 200 and 100 mg./kg./dose subcutaneously, four times daily, days 0-4; 40 LD50 virus intravenously
Description: The following is an example of the antiviral activity of antibiotic U-44,590. The antibiotic is administered subcutaneously to mice which are inoculated intravenously with Herpes simplex virus. Treatment is initiated 2 hours prior to viral infection and is followed by treatment four times daily for five consecutive days. A detailed account of the materials and methods and results are as follows:
Male mice, weighing approximately 20 gm. each, are divided into 4 groups of 20. Group 1 is treated with saline, Group 2 with 400 mg./kg./dose (mkd) U-44,590, Group 3 with 200 mkd U-44,590, and Group 4 with 100 mkd U-44,590. The antibiotic is dissolved in saline and administered subcutaneously in the nape of the neck at 8 a.m., 12 noon, 4 p.m., and 8 p.m. on days 0, 1, 2, 3, and 4. Herpes virus at 10^^-1.5 dilution, 0.05 ml/mouse, equivalent to a viral dose of 40 LD50 s, is inoculated into the tail vein at 10 a.m. on day 0. Paralysis and death are recorded daily.
Hind leg paralysis usually preceded death by 1-2 days. All mice died that became paralyzed. Death pattern of the 4 groups, as shown in the curves which follow, illustrates the dose response obtained.

[1] = test system: Gram-negative and Gram-positive bacteria; assay: Antibacterial activity (statement); conditions: for example, Streptococcus hemolyticus, Klebsiella, Salmonella Sp., Serratia marcescens, Pasteurella multocida, Hemophilus Sp., Proteus morgani, Proteus rettgeri
Salmonella flexneri = assay: In vivo testing in infected mice; conditions: IP challenge 40 LD50, read-out: Activity (CD50)
Source text: (§1) In vivo testing of U-44,590 in mice infected with selected microorganisms is as follows: […]

Proteus vulgaris [2] = assay: In vivo testing in infected mice
Source text: as §1

[3] = test system: Streptococcus hemolyticus; assay: In vivo testing in infected mice; conditions: Streptococcus pyogenes, Oral route, IP challenge 100 LD50, read-out: Activity (CD50)
Source text: as §1

Escherichia coli [4] = assay: In vivo testing in infected mice; conditions: IP challenge 79 LD50, read-out: Activity (CD50)
Source text: as §1

Proteus mirabilis [5] = assay: In vivo testing in infected mice; conditions: IP challenge 1259 LD50, read-out: Activity (CD50)
Source text: as §1

Solubilities = assay type: physicochemical
Pseudomonas aeruginosa = assay: Antibacterial activity, standard agar dilution test; assay type: cell-based; conditions: 16 h, 5 strains, Brain Heart Infusion, 37° C., 16-18 hours, read-out: Inhibition
Description: (§2) The above antibacterial spectrum was obtained by a standard agar dilution test with the following media and conditions:
(§3) Difco Brain Heart Infusion Medium was used for all test bacteria except P. multocida and Hemophilus species which were grown in Difco Blood Agar Base with 5% defibrinated rabbit blood. All were grown aerobically at 37° C. (except Hemophilus species, grown anaerobically) 16-18 hours. Inocula were grown overnite (16-18 hours) at 37° C. and used to seed agar at the rate of 0.025 ml. of 10^^-3 dilution (approximately 2500 to 25,000 bacteria per drop of inoculum).

Staphylococcus aureus = assay: as above; assay type: cell-based; conditions: 16 h, 1 strain, Brain Heart Infusion, 37° C., 16-18 hours, read-out: Inhibition
Description: as §2, §3

Proteus vulgaris [6] = assay: as above; assay type: cell-based; conditions: 16 h, 3 strains, Brain Heart Infusion, 37° C., 16-18 hours, read-out: Inhibition
Description: as §2, §3

[7] = test system: Streptococcus hemolyticus; assay: as above; assay type: cell-based
Description: as §2, §3

Proteus morgani = assay: as above; assay type: cell-based; conditions: 16 h, 3 strains, Brain Heart Infusion, 37° C., 16-18 hours, read-out: Inhibition
Description: as §2, §3

Serratia marcescens = assay: as above; assay type: cell-based; conditions: 16 h, 2 strains, Brain Heart Infusion, 37° C., 16-18 hours, read-out: Inhibition
Description: as §2, §3

Pasteurella multocida = assay: as above; assay type: cell-based; conditions: 16 h, 1 strain, Blood Agar Base with 5% defibrinated rabbit blood, 37° C., 16-18 hours, read-out: Inhibition
Description: as §2, §3

Diplococcus pneumoniae = assay: as above; assay type: cell-based; conditions: Streptococcus pneumoniae, 16 h, 1 strain, Brain Heart Infusion, 37° C., 16-18 hours, read-out: Inhibition
Description: as §2, §3

Proteus mirabilis [8] = assay: as above; assay type: cell-based; conditions: 16 h, 3 strains, Brain Heart Infusion, 37° C., 16-18 hours, read-out: Inhibition
Description: as §2, §3

Escherichia coli [9] = assay: Antibacterial activity (statement)

Question: Which results are given for `CN1CN([C@H]2C[C@H](O)[C@@H](CO)O2)C(=O)NC1=O` [U-44,590, 1(2-deoxy-β-D-erythro-pentofuranosyl)-5,6-dihydro-5-methyl-s-triazine-2,4(1H,3H)-dione]?
Answer: Activity against DNA viruses (Herpes virus): active against DNA viruses; Death pattern, statistical analysis of the results at day 11 (Herpes simplex virus): all 3 treated groups are significantly different from the control group (1); Effect on growth of bacteria [1]: adversely affecting the growth of Gram-negative and Gram-positive bacteria; ED50 (Salmonella flexneri; Oral route): 62.5 mg/kg; ED50 (Salmonella flexneri; sc, Subcutaneous route): 38 mg/kg; ED50 (Proteus vulgaris [2]; po, IP challenge 79 LD50, read-out: Activity (CD50)): < 62.5 mg/kg; ED50 (Proteus vulgaris [2]; po, IP challenge 150 LD50 (line without organism name below Proteus vulgaris), read-out: Activity (CD50)): ~30 mg/kg; ED50 (Proteus vulgaris [2]; sc, Subcutaneous route, IP challenge 79 LD50, read-out: Activity (CD50)): 100 mg/kg; ED50 [3]: > 160 mg/kg; ED50 (Escherichia coli [4]; Oral route): 218 mg/kg; ED50 (Escherichia coli [4]; sc, Subcutaneous route): 141 mg/kg; ED50 (Proteus mirabilis [5]; Oral route): 101 mg/kg; ED50 (Proteus mirabilis [5]; sc, Subcutaneous route): 152 mg/kg; Solubility (Solubilities; in Me2 CO, EtOAc, hydrocarbons, CH2 Cl2 and CHCl3): relatively insoluble; Solubility (Solubilities; in water, and lower alcohols, for example, methanol and ethanol): Highly soluble; MIC (Pseudomonas aeruginosa): > 1000 µg/mL; MIC (Staphylococcus aureus): > 1000 µg/mL; MIC (Proteus vulgaris [6]): > 1000 µg/mL; Activity against Streptococcus hemolyticus [7]: active against Streptococcus hemolyticus; MIC ([7]; Streptococcus pyogenes, 16 h, Streptococcus hemolyticus, 1 strain, Brain Heart Infusion, 37° C., 16-18 hours, read-out: Inhibition): 15.2 µg/mL (≈ 62 µM); MIC (Proteus morgani): 62.5 to 250 µg/mL (≈ 255 to 1020 µM); MIC (Serratia marcescens): 125 µg/mL (≈ 510 µM); MIC (Pasteurella multocida): 125 µg/mL (≈ 510 µM); MIC (Diplococcus pneumoniae): 500 µg/mL (≈ 2040 µM); MIC (Proteus mirabilis [8]): > 1000 µg/mL; Activity against Escherichia coli (Escherichia coli [9]): active against Escherichia coil
